In PubChem BioAssay AID2305 (GlaxoSmithKline (GSK), 2010):
“And” between values parts separate entries of the source, which are not always exact repeats. Equal entries are not always repeated.

test system: P. falciparum 3D7 growth, pLDH absorbance; test: P. falciparum 3D7 growth inhibition, dose response, strain 3D7 (AID 2305)

| Compound | IC50 |
| --- | --- |
| O=C(/C=C/c1ccc(Cl)c(Cl)c1)NCC1CCN(Cc2ccc(O)cc2)CC1 | 690 nM |
| Nc1cccc(CNCc2cccc(-c3cccc(-c4nc5ccccc5[nH]4)c3)c2)c1 | 610 nM |
| COc1ccc(-c2cc(-c3ccc(S(C)(=O)=O)cc3)cnc2N)cn1 | 190 nM |
| Cc1cc(NC(=O)NCCN2CCC(NC(=O)c3ccc(Cl)cc3)CC2)c2ccccc2n1 | 380 nM |
| CC(C)C[C@H](NC(=O)c1ccc(OCCN2CCOCC2)cc1)C(=O)N[C@H](/C=N/NC(=O)c1ccccc1)CCc1ccccc1 | 60 nM |
| O=C(NCCCCCN1CCC(c2c[nH]c3ccccc23)CC1)Nc1ccc(I)cc1 | 990 nM |
| O=C1CCCN1CCCNCc1ccc(-c2ccc(-c3nc4ccc(C(F)(F)F)cc4[nH]3)s2)cc1 | 380 nM |
| COc1ccc(NS(=O)(=O)c2cc(NC(=O)Cn3ccccc3=O)ccc2N2CCCCC2)cc1 | 700 nM |
| c1ccc(CN2CCN(CCCCNc3c4ccccc4nc4ccccc34)CC2)cc1 | 120 nM |
| Cc1cccn2c(=O)c3cc(C(=O)NCc4cccnc4)c(=N)n(CCc4ccccc4)c3nc12 | 710 nM |
| CC(C)(C)OC(=O)NCc1ccc(Nc2nnc(-c3cccc(OCC(=O)NCc4cc(C(F)(F)F)cc(C(F)(F)F)c4)c3)o2)cc1 | 830 nM |
| Cc1cc(NN=Cc2ccccc2Cl)c2ccccc2n1 | 900 nM |
| CC(C)C[C@@H](/C=N/N1CC(=O)NC1=O)NC(=O)[C@H](CC(C)C)NC(=O)c1ccc(OCCN2CCOCC2)cc1 | 270 nM |
| COc1cc2nc(Nc3ccc(Oc4ccccc4)cc3)nc(Nc3ccc(Oc4ccccc4)cc3)c2cc1OC | 930 nM |
| CCCN(CC1CC1)c1ncc(-c2cccc(CNCCC3CCCN3C)c2)cn1 (stereo not drawn) | 750 nM |
| N#Cc1cncc(-c2nc3c(N4CCC(Cc5ccccc5)CC4)cccc3n2CCNCc2ccccc2)c1 | 570 nM |
| N=C(N)c1ccc(OCCCCCOc2ccc(C(=N)N)cc2)cc1 | 140 nM |
| O=C(Nc1ccc(C(=O)OC[C@@H]2CCCN3CCCC[C@H]23)cc1)c1ccc(Cl)c(Cl)c1 | 720 nM |
| COC(=O)c1cccc(CNCc2ccc(-c3ccc(-c4nc5c(C)cccc5[nH]4)s3)cc2)c1 | 400 nM |
| N#Cc1ccc2c(c1)CCN(CCC1CCC(NC(=O)/C=C/c3cnc4ccccc4c3)CC1)CC2 (stereo not drawn) | 1210 nM |
| Cc1[nH]c(C)c(C(F)(F)F)c(=O)c1-c1ccc(Oc2ccc(OC(F)(F)F)cc2)cc1 | 170 nM |
| COc1cccc(-c2cc(-c3ccc(NC(=O)c4ccccc4)cc3)c3c(N)ncnc3n2)c1 | 590 nM |
| CN1CCC[C@H]1COc1ccc(CN2CC[C@H](NC(=O)c3ccc(Cl)c(Cl)c3)C2)cc1Cl | 1150 nM |
| Cn1ccnc1CNC(=O)c1ccc(-c2cccc(-c3nc4ccc(C(F)(F)F)cc4[nH]3)c2)cc1 | 720 nM |

| Compound | IC50 |
| --- | --- |
| CCC[C@@H]([C@@H](CC(C)C)C(=O)N[C@@H](CCCNc1nccc(C(F)(F)F)n1)C(=O)Nc1nccs1)N(O)C=O | 370 nM |
| Cn1nc(-c2ccc(CNC3CCc4ccccc43)cc2)c2cnc(NCCN3CCCC3)nc21 (stereo not drawn) | 1350 nM |
| CC(ON1C(N)=NC(N)=NC1(C)C)c1ccccc1 (stereo not drawn) | 10 nM |
| CN(Cc1ccncc1)C(Cc1ccccc1)C1CCN(Cc2ccc(O)c(Cl)c2)CC1 (stereo not drawn) | 750 nM |
| CS(=O)(=O)N(c1ccccc1)c1cc(C(=O)N[C@@H](Cc2ccccc2)[C@H](O)CNC2CCCCC2)cc(N2CCCC2=O)c1 | 80 nM |
| Cc1cccc2[nH]c(-c3cccc(-c4cccc(NC(=O)Nc5ccc(F)c(F)c5F)c4)c3)nc12 | 110 nM |
| O=C(/C=C/c1ccc(Cl)c(Cl)c1)NC1CCC(CN2CCC(c3nc4ncccc4[nH]3)CC2)CC1 (stereo not drawn) | 1230 nM |
| O=C(/C=C/c1c(Cl)cccc1Cl)NC1CCC(CN2CCC(Cc3cc4ccccc4[nH]3)CC2)CC1 (stereo not drawn) | 970 nM |
| CN1[C@@H]2CC[C@H]1c1cc(NC(=O)c3cc(-c4ccc(Cl)cc4)cs3)ccc12 | 1300 nM |
| COc1ccc2c(NN=Cc3ccc(OC)c4ccccc34)cc(C)nc2c1 | 600 nM |
| CS(=O)(=O)CCN(CCS(C)(=O)=O)Cc1ccc(-c2ccc3ncnc(Nc4ccc(OCc5cccc(F)c5)c(Cl)c4)c3c2)o1 | 1020 nM |
| Cc1cccc(/C=C/C(=O)NC2CCC(N3CCC(c4ccccc4C)CC3)CC2)c1 (stereo not drawn) | 1110 nM |
| CCC(C)CN1CCC(N(C)c2cc(NC(=O)c3ccc(F)cc3)ccn2)CC1 (stereo not drawn) | 980 nM |
| FC(F)(F)COc1c(CCNCCCCNCCc2ccc3ccccc3c2OCC(F)(F)F)ccc2ccccc12 | 350 nM |
| O=C(Nc1cccc(C(F)(F)F)c1)NC1CCN(c2ccnc3cc(Cl)ccc23)CC1 | 290 nM |
| Cc1noc(C)c1-c1cccc(CNCc2cccc(-c3cccc(-c4nc5ccc(C(F)(F)F)cc5[nH]4)c3)c2)c1 | 460 nM |
| COc1ccc2nccc([C@@H](O)CN3CCC(NCc4cc5sccc5nc4C(F)(F)F)CC3)c2c1 | 910 nM |
| CC(C)C[C@H](NC(=O)c1cc2ccccc2s1)C(=O)N[C@H]1CCN(Cc2ccc(OC[C@@H]3CCCN3C)c(Cl)c2)C1 | 850 nM |
| Brc1ccc(Nc2nc3ccccc3nc2Nc2ccc(Br)cc2)cc1 | 780 nM |
| CC1(C)C(N(O)C(=O)Nc2ccc(Cl)c(Cl)c2)N(c2ccc(Cl)c(Cl)c2)C(=O)N1CCc1ccccc1 (stereo not drawn) | 820 nM |
| CC(C)(C)c1nn(-c2ccc(Cl)cc2)c2[nH]c(=O)c(CNC3CCCC3)cc12 | 230 nM |
| Cc1c(C(=O)N2CCc3cc4nccc(N5CCN6CCC[C@H]6C5)c4cc32)cnn1-c1ccc(C#N)cc1 | 990 nM |
| CCCCN1CCCC[C@H]1[C@@H](O)c1ccnc2ccc(OCC)cc12 | 770 nM |
| Cc1[nH]c2ccccc2c1C1CCN(CCCCNC(=O)c2ccc(-c3ccc(C#N)cc3)cc2)CC1 | 700 nM |

| Compound | IC50 |
| --- | --- |
| CC(=O)Nc1ccc([N+](=O)[O-])c2c(Br)cccc12 | 640 nM |
| COc1ccc(NC(=O)CSc2nc(-c3ccccc3Cl)ns2)cc1 | 1040 nM |
| C[C@H](Cc1ccc(OCCCCCCCOc2ccc(C[C@@H](C)NC[C@H](O)c3cccc(Cl)c3)cc2)cc1)NC[C@H](O)c1cccc(Cl)c1 | 190 nM |
| C/C=C1\CN2CC[C@H]1C[C@H]2[C@H](O)c1ccnc2ccc(O)cc12 | 600 nM |
| O=C(/C=C/c1ccc(Cl)c(Cl)c1)NCCCCCN1CCC(NC(=O)Nc2ccc(Cl)c(C(F)(F)F)c2)CC1 | 650 nM |
| Cc1ccc(-n2c(C)nc3c(Nc4ccc(-c5ccncc5)cc4)ncnc32)c(C)c1 | 100 nM |
| CN1CCN(CCCN(Cc2csc(-c3ccc(CNCc4ccccc4)cc3)n2)S(=O)(=O)c2ccccc2Cl)CC1 | 880 nM |
| COc1ccc(CNCc2ccc(F)cc2)cc1-c1ccc(OC)c(S(=O)(=O)NCCN2CCCC2)c1 | 790 nM |
| COc1ccc(C(C(=O)NC2CCN(C[C@H](O)c3ccnc4ccc(OC)cc34)CC2)N2CCc3ccccc3C2)cc1 (stereo partly drawn) | 700 nM |
| Cc1ncccc1C(=O)Nc1ccc(-c2cccc(-c3nc4c(C)cccc4[nH]3)c2)cc1 | 730 nM |
| Cc1cc(N[C@@H](Cc2ccccc2)C(=O)NCc2cccs2)nc(NCCOc2ccccc2)n1 | 1480 nM |
| COc1ccc(C=NNc2nc3ccccc3[nH]2)cc1O | 920 nM |
| COc1ccc(O)c(Cc2cnc3nc(N)nc(N)c3c2C)c1 | 40 nM |
| O=C(Nc1cccc(F)c1)N(Cc1ccc(-c2ccc(CN3CCNCC3)cc2)cc1)C1CCN(Cc2ccccc2)CC1 | 770 nM |
| Nc1nonc1-c1nc2c(-c3cccc(Cl)c3)nccc2n1CCCNC(=O)Cc1ccc(Cl)cc1 | 270 nM |
| O=C(Nc1cccc(OC2CCN(Cc3ccccc3)CC2)c1)c1ccc([N+](=O)[O-])cc1 | 660 nM |
| O=C(Nc1ccccc1Cl)NC1CCC(CN2CCC(c3c[nH]c4ccccc34)CC2)CC1 (stereo not drawn) | 800 nM and 750 nM |
| CC(C)NCc1ccc(-c2cccc(-c3nc4ccc(F)cc4[nH]3)c2)cc1 | 410 nM |
| Cc1cc2ccccc2c(CON2C(N)=NC(N)=NC2(C)C)c1C | 10 nM |
| COc1ccc(-c2cccc(NC(=O)c3cccc(C#N)c3)c2)cc1CN1CCNCC1 | 730 nM |
| COc1ccc2nccc([C@@H](O)CN3CCC(NCc4ccc5cccc(O)c5n4)CC3)c2n1 | 910 nM |
| O=C(Nc1ccc(OC2CCN(Cc3ccc(F)cc3)C2)cc1)c1cccs1 (stereo not drawn) | 640 nM |
| Cc1[nH]c(C)c(-c2ccc(-c3ccccc3F)nc2)c(=O)c1Br | 400 nM |
| COc1ccc(C(=O)N2CCc3cc4nccc(N5CCN6CCC[C@H]6C5)c4cc32)cc1 | 950 nM |

| Compound | IC50 |
| --- | --- |
| CON=C1CCC(Cn2ccnc2)(c2ccc(Cl)cc2Cl)CC1 (stereo not drawn) | 880 nM |
| Cc1ccc(CNC(=O)[C@H](Cc2ccccc2)Nc2cc(C)nc(NCCc3ccc(F)cc3)n2)cc1 | 980 nM |
| COc1cccc(NC(=O)NC2CCN(c3ccnc(Nc4cc(OC)c(OC)c(OC)c4)n3)C2)c1 (stereo not drawn) | 860 nM |
| CC(C)(C)OC(=O)N[C@@H](Cc1ccccc1)C(=O)Nc1cccc(-c2cccc(NC(=O)[C@H](Cc3ccccc3)NC(=O)OC(C)(C)C)c2)c1 | 610 nM |
| COc1cc(F)c2ncc(Cl)c(CCN3CCC(NCc4ccc5c(c4)OCCO5)CC3)c2c1 | 470 nM |
| CC(C)c1ccc(OCC(O)CN(CCN2CCOCC2)C(=O)Nc2ccc(Br)cc2)cc1 (stereo not drawn) | 720 nM |
| O=C(Nc1ccccc1)N(Cc1ccc(-c2cccc(CNCc3ccc4c(c3)OCO4)c2)cc1)C1CCN(Cc2ccccc2)CC1 | 280 nM |
| Cc1cnc(C(=O)Nc2ccc3c(c2)CCCN(Cc2c[nH]c4cnccc24)C3)cn1 | 1230 nM |
| CCCOc1ccc(C(=O)Nc2nonc2-c2ccc(OC)c(OC)c2)cc1 | 990 nM |
| O=C(Nc1c(F)cccc1F)c1cccc(-c2nn3ccccc3c2-c2ccnc(Nc3cccc(-c4cnco4)c3)n2)c1 | 360 nM |
| O=C(NCCCN1CCC(N2CCCCC2)CC1)c1ccc(N2CCOc3ccccc32)s1 | 730 nM |
| C/C=C/COc1ccc2ccccc2c1CNCCCCCCCCNCc1c(OC/C=C/C)ccc2ccccc12 | 910 nM |
| O=C(NCCCN1CCCCC1)c1ccc(Nc2nccc(Nc3ccc(Oc4ccccc4)cc3)n2)cc1 | 630 nM |
| CN1CCN(c2cc3c(cc2Cl)CCN3C(=O)Cc2ccc(Cl)c(NC(=O)Nc3cccc([N+](=O)[O-])c3)c2)CC1 | 720 nM |
| CC(C)(CN)c1nc(-c2ccc(Cl)c(O)c2)c(-c2ccncc2)[nH]1 | 760 nM |
| Cc1cc(CNCC2CCC(CNCCCc3ccccc3)CC2)ccc1O (stereo not drawn) | 870 nM |
| Cc1[nH]c2c(C)cc(NS(C)(=O)=O)cc2c1C1CCN(CC2CCN(C(=O)/C=C/c3ccc(Cl)c(Cl)c3)CC2)CC1 | 240 nM |
| CCCCCC(C)c1cc(O)c2c(c1)OC(C)(C)C=C2C1=CCN(Cc2ccccc2)CC1 (stereo not drawn) | 780 nM |
| COc1ccc2nccc([C@@H](O)CN3CCC(NCc4cc5ccccc5s4)CC3)c2c1 | 350 nM |
| COc1ccccc1CCNc1nccc(N[C@@H](Cc2ccccc2)C(=O)NCc2cccs2)n1 | 870 nM |
| Cc1cc(N2CCCC2)nc(Nc2ccc(NC(=O)c3ccccc3)cc2)n1 | 980 nM |
